By Papp is commonly meant a coefficient for how fast a substance crosses the barrier.

Experimental findings from US20230158025A1 (UNIVERSITY OF UTAH RESEARCH FOUNDATION, priority 2020, published 2023) are described below.

Data set [1] can be described thus: rat microsomal stability (RLM). The note with it: microsomal stability half-life.
For data set [2], the target named is recombinant mouse GALK1 (Mus musculus, UniProt Q9R0N0). Description: mGALK1 biochemical activity assay (Kinase-Glo Plus, ATP depletion). In a few lines: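 Recombinant GALK1 (5 nM) with 100 μM galactose; GALK1 turnover read as ATP depletion by Kinase-Glo Plus luminescence. Reaction ran 1 h at room temperature before detection reagent was added.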
Background: Kinase-Glo measures the ATP left after a reaction by luminescence.

A short description of data set [3]: PAMPA permeability. The settings on record: PAMPA. Background: PAMPA measures passive passage across an artificial lipid membrane.
Data set [4] addresses recombinant human GALK1 (Homo sapiens, UniProt P51570). The data set can be described thus: hGALK1 biochemical activity assay (Kinase-Glo Plus, ATP depletion). In a few lines: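 Recombinant human or mouse GALK1 (5 nM, with 100 μM galactose, in the added enzyme solution) was run with ATP (35 μM in the substrate solution) in HEPES pH 8.0 buffer. Compounds were tested at 11 1/3-step concentrations from 57.4 μM to 0.97 nM. After 1 h at room temperature, remaining ATP was read by Kinase-Glo Plus luminescence.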

The nature of data set [5]: aqueous kinetic solubility. The note with it: aqueous kinetic solubility.
Where [6] appears, read: Tables 2-15, 35 μM ATP, 100 μM galactose, 1 h, bracketed figure after some values is undefined and not reported, read-out: mGALK IC50.
The mark [7] stands for this setting: recombinant mouse GALK1, Kinase-Glo Plus ATP depletion, read-out: mGALK.
Setting [8] is: Tables 2-15, 35 μM ATP, 100 μM galactose, 1 h, bracketed figure after some values (e.g. −1.2) is undefined and not reported, read-out: hGALK IC50.
Where [9] appears, read: recombinant human GALK1, Kinase-Glo Plus ATP depletion, read-out: hGALK.

SMILES strings stand for the structures. Like-named read-outs stand apart in the source and are kept apart here. Where only a bound is given, the exact number is not on record here.

Sequence of recombinant human GALK1 (P51570 whole entry): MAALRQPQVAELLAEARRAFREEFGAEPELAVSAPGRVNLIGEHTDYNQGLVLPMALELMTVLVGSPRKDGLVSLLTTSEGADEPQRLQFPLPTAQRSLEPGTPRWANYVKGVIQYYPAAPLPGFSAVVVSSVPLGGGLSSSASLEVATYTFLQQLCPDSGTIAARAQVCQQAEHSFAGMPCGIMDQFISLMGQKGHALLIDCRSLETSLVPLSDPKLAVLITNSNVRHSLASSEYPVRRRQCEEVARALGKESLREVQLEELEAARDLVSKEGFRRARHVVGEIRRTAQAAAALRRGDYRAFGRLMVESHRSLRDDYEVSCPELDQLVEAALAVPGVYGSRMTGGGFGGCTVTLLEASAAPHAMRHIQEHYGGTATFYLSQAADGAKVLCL
Sequence of recombinant mouse GALK1 (Q9R0N0 whole entry): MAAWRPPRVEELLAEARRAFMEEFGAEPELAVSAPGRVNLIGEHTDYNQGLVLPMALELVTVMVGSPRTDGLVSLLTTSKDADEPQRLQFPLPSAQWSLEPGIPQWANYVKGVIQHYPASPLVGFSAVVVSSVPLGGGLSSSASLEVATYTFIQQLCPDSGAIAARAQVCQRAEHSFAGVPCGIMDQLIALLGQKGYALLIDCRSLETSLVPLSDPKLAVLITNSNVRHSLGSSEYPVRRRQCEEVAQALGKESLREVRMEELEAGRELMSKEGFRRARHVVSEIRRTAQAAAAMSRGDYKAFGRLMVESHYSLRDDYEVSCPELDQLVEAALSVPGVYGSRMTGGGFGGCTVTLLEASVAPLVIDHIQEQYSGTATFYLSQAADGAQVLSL

For `CC1=C(C(=O)Nc2nnc(C(F)(F)F)s2)C(c2ccccc2Cl)N=C(Nc2nc3ccccc3o2)N1` (centres unmarked) [Compound 167, 2-(benzo[d]oxazol-2-ylamino)-4-(2-chlorophenyl)-6-methyl-N-(5-(trifluoromethyl)-1,3,4-thiadiazol-2-yl)-1,4-dihydropyrimidine-5-carboxamide], the “Metab. Stabil. (m)” value in data set [1] was >30 m. The IC50 was found to be 21.7 µM in data set [2] (setting [6]), 21.7 µM in data set [2] (setting [7]), 12.2 µM in data set [4] (setting [8]) and 12.2 µM in data set [4] (setting [9]). Further, the “Perm. (1 × 10^−6 cm/sec)” value in data set [3] was 12.6 1 × 10^−6 cm/sec. For the same molecule, the “Sol.” value in data set [5] was <1 µg/mL.

Turning to `CCOC(=O)c1nnc(NC(=O)C2=C(C)NC(Nc3nc4ccccc4o3)=NC2c2ccccc2Cl)s1` (centres unmarked) [Compound 168, ethyl 5-(2-(benzo[d]oxazol-2-ylamino)-4-(2-chlorophenyl)-6-methyl-1,4-dihydropyrimidine-5-carboxamido)-1,3,4-thiadiazole-2-carboxylate], the “Metab. Stabil. (m)” value in data set [1] is given as 3.158 m. Further, the IC50 in data set [2] (setting [6]) came to 10.9 µM; in data set [4] (setting [8]), 4.85 µM; in data set [4] (setting [9]), 4.85 µM. In data set [3], the “Perm. (1 × 10^−6 cm/sec)” value is recorded as <2.7 1 × 10^−6 cm/sec. Also, the “Sol.” value in data set [5] was <1 µg/mL.

As to `COC(=O)Cc1ccc(NC(=O)C2=C(C)NC(Nc3nc4ccccc4o3)=NC2c2ccccc2Cl)cc1` (centres unmarked) [Compound 170, methyl 2-(4-(2-(benzo[d]oxazol-2-ylamino)-4-(2-chlorophenyl)-6-methyl-1,4-dihydropyrimidine-5-carboxamido)phenyl)acetate], the “Metab. Stabil. (m)” value in data set [1] was 7.464 m. Also, the IC50 came out at 12.2 µM in data set [2] (setting [6]), 12.2 µM in data set [2] (setting [7]), 5.44 µM in data set [4] (setting [8]) and 5.44 µM in data set [4] (setting [9]). Also, the “Perm. (1 × 10^−6 cm/sec)” value in data set [3] was 195.0 1 × 10^−6 cm/sec. The “Sol.” value in data set [5] was <1 µg/mL.

Regarding `CC1=C(C(=O)Nc2cccc(CN)c2)C(c2ccccc2Cl)N=C(Nc2nc3ccccc3o2)N1` (centres unmarked) [Compound 171, N-(3-(aminomethyl)phenyl)-2-(benzo[d]oxazol-2-ylamino)-4-(2-chlorophenyl)-6-methyl-1,4-dihydropyrimidine-5-carboxamide], the “Metab. Stabil. (m)” value in data set [1] is recorded as >30 m. Besides, the IC50 in data set [2] (setting [6]) was determined as 6.85 µM; in data set [2] (setting [7]) it was 6.85 µM; in data set [4] (setting [8]), 10.9 µM; in data set [4] (setting [9]), 10.9 µM. The “Perm. (1 × 10^−6 cm/sec)” value in data set [3] was 32.7 1 × 10^−6 cm/sec. Also, the “Sol.” value in data set [5] was 37.5 µg/mL.

For `CC1=C(C(=O)Nc2cccc(-c3nnn[nH]3)c2)C(c2ccccc2Cl)N=C(Nc2nc3ccccc3o2)N1` (centres unmarked) [Compound 175, N-(3-(1H-tetrahydro-5-yl)phenyl)-2-(benzo[d]oxazol-2-ylamino)-4-(2-chlorophenyl)-6-methyl-1,4-dihydropyrimidine-5-carboxamide], the “Metab. Stabil. (m)” value in data set [1] is >30 m. The IC50 in data set [2] (setting [6]) is 34.3 µM; in data set [2] (setting [7]), 34.3 µM; in data set [4] (setting [8]), 19.3 µM; in data set [4] (setting [9]), 19.3 µM. Also, the “Perm. (1 × 10^−6 cm/sec)” value in data set [3] is reported as 5.0 1 × 10^−6 cm/sec. Besides, the “Sol.” value in data set [5] was determined as 47.5 µg/mL.

For the molecule `COC(=O)Cc1cccc(NC(=O)C2=C(C)NC(Nc3nc4ccccc4o3)=NC2c2ccccc2Cl)c1` (centres unmarked) [Compound 176, methyl 2-(3-(2-(benzo[d]oxazol-2-ylamino)-4-(2-chlorophenyl)-6-methyl-1,4-dihydropyrimidine-5-carboxamido)phenyl)acetate], the “Metab. Stabil. (m)” value in data set [1] was 10.34 m. For the same molecule, the IC50 in data set [2] (setting [6]) is 13.7 µM; in data set [2] (setting [7]), 13.7 µM; in data set [4] (setting [8]), 10.9 µM; in data set [4] (setting [9]), 10.9 µM. In addition, in data set [3], the “Perm. (1 × 10^−6 cm/sec)” value is <17.4 1 × 10^−6 cm/sec. For the same molecule, the “Sol.” value in data set [5] is <1 µg/mL.

In the case of `CC1=C(C(=O)Nc2cccc(-c3cn[nH]c3)c2)C(c2ccccc2Cl)N=C(Nc2nc3ccccc3o2)N1` (centres unmarked) [Compound 178, N-(3-(1H-pyrazol-4-yl)phenyl)-2-(benzo[d]oxazol-2-ylamino)-4-(2-chlorophenyl)-6-methyl-1,4-dihydropyrimidine-5-carboxamide], the “Metab. Stabil. (m)” value in data set [1] is reported as >30 m. Moreover, the IC50 is 38.5 µM in data set [2] (setting [6]), 38.5 µM in data set [2] (setting [7]), 17.2 µM in data set [4] (setting [8]) and 17.2 µM in data set [4] (setting [9]). For the same molecule, the “Perm. (1 × 10^−6 cm/sec)” value in data set [3] is <25.4 1 × 10^−6 cm/sec. For the same molecule, the “Sol.” value in data set [5] was <1 µg/mL.

For `CC1=C(C(=O)Nc2nnc(-c3cccnc3)s2)C(c2ccccc2Cl)N=C(Nc2nc3ccccc3o2)N1` (centres unmarked) [Compound 180, 2-(benzo[d]oxazol-2-ylamino)-4-(2-chlorophenyl)-6-methyl-N-(5-(pyridin-3-yl)-1,3,4-thiadiazol-2-yl)-1,4-dihydropyrimidine-5-carboxamide], the “Metab. Stabil. (m)” value in data set [1] is listed as >30 m. Also, the IC50 in data set [2] (setting [6]) was 9.68 µM; in data set [2] (setting [7]), 9.68 µM; in data set [4] (setting [8]), 3.06 µM; in data set [4] (setting [9]), 3.06 µM. Further, the “Perm. (1 × 10^−6 cm/sec)” value in data set [3] is <3.7 1 × 10^−6 cm/sec. Also, the “Sol.” value in data set [5] is <1 µg/mL.

Consider `CC1=C(C(=O)Nc2ccc(C(N)=O)cc2)C(c2ccccc2Cl)N=C(Nc2nc3ccccc3o2)N1` (centres unmarked) [Compound 181, 2-(benzo[d]oxazol-2-ylamino)-N-(4-carbamoylphenyl)-4-(2-chlorophenyl)-6-methyl-1,4-dihydropyrimidine-5-carboxamide], for which the “Metab. Stabil. (m)” value in data set [1] is on record as >30 m. Moreover, the IC50 in data set [2] (setting [6]) was determined as 6.85 µM; in data set [2] (setting [7]) it was 6.85 µM; in data set [4] (setting [8]), 4.32 µM; in data set [4] (setting [9]) it was 4.32 µM. Also, the “Perm. (1 × 10^−6 cm/sec)” value in data set [3] is <6.3 1 × 10^−6 cm/sec. In data set [5], the “Sol.” value was <1 µg/mL.

As for `CC1=C(C(=O)Nc2ccc(CN3CCOCC3)cc2)C(c2ccccc2Cl)N=C(Nc2nc3ccccc3o2)N1` (centres unmarked) [Compound 183, 2-(benzo[d]oxazol-2-ylamino)-4-(2-chlorophenyl)-6-methyl-N-(4-(morpholinomethyl)phenyl)-1,4-dihydropyrimidine-5-carboxamide], in data set [1], the “Metab. Stabil. (m)” value is listed as 22.3 m. Moreover, the IC50 in data set [2] (setting [6]) was 9.68 µM; in data set [2] (setting [7]), 9.68 µM; in data set [4] (setting [8]), 5.44 µM; in data set [4] (setting [9]), 5.44 µM. For the same molecule, the “Perm. (1 × 10^−6 cm/sec)” value in data set [3] is listed as 120.4 1 × 10^−6 cm/sec. Besides, in data set [5], the “Sol.” value was <1 µg/mL.

For the molecule `CC1=C(C(=O)Nc2ccc(-n3cccn3)cc2)C(c2ccccc2Cl)N=C(Nc2nc3ccccc3o2)N1` (centres unmarked) [Compound 184, N-(4-(1H-pyrazol-1-yl)phenyl)-2-(benzo[d]oxazol-2-ylamino)-4-(2-chlorophenyl)-6-methyl-1,4-dihydropyrimidine-5-carboxamide], the “Metab. Stabil. (m)” value in data set [1] was 16.4271 m. Further, the IC50 in data set [2] (setting [6]) worked out at 12.2 µM; in data set [2] (setting [7]), 12.2 µM; in data set [4] (setting [8]), 6.11 µM; in data set [4] (setting [9]), 6.11 µM. Further, in data set [3], the “Perm. (1 × 10^−6 cm/sec)” value is recorded as <11.8 1 × 10^−6 cm/sec. The “Sol.” value in data set [5] was <1 µg/mL.

Regarding `COC(=O)c1cnc(NC(=O)C2=C(C)NC(Nc3nc4ccccc4o3)=NC2c2ccccc2Cl)s1` (centres unmarked) [Compound 185, methyl 2-(2-(benzo[d]oxazol-2-ylamino)-4-(2-chlorophenyl)-6-methyl-1,4-dihydropyrimidine-5-carboxamido)thiazole-5-carboxylate], in data set [1], the “Metab. Stabil. (m)” value turned out to be 15.91 m. The IC50 in data set [2] (setting [6]) stood at 10.9 µM; in data set [2] (setting [7]), 10.9 µM; in data set [4] (setting [8]), 4.32 µM; in data set [4] (setting [9]), 4.32 µM. Also, in data set [3] (Perm. (1 × 10^−6 cm/sec)), the Papp is < 7.6 ×10⁻⁶ cm/s. In addition, in data set [5], the “Sol.” value is <1 µg/mL.

As for `COC(=O)c1csc(NC(=O)C2=C(C)NC(Nc3nc4ccccc4o3)=NC2c2ccccc2Cl)n1` (centres unmarked) [Compound 186, methyl 2-(2-(benzo[d]oxazol-2-ylamino)-4-(2-chlorophenyl)-6-methyl-1,4-dihydropyrimidine-5-carboxamido)thiazole-4-carboxylate], the “Metab. Stabil. (m)” value in data set [1] was >30 m. Further, the IC50 stood at 13.7 µM in data set [2] (setting [6]), 13.7 µM in data set [2] (setting [7]), 12.2 µM in data set [4] (setting [8]) and 12.2 µM in data set [4] (setting [9]). Also, the “Perm. (1 × 10^−6 cm/sec)” value in data set [3] is 65.6 1 × 10^−6 cm/sec. For the same molecule, in data set [5], the “Sol.” value is <1 µg/mL.

With `CC1=C(C(=O)Nc2nnc(-c3ccncc3)s2)C(c2ccccc2Cl)N=C(Nc2nc3ccccc3o2)N1` (centres unmarked) [Compound 187, 2-(benzo[d]oxazol-2-ylamino)-4-(2-chlorophenyl)-6-methyl-N-(5-(pyridin-4-yl)-1,3,4-thiadiazol-2-yl)-1,4-dihydropyrimidine-5-carboxamide], the “Metab. Stabil. (m)” value in data set [1] was >30 m. For the same molecule, the IC50 is 19.3 µM in data set [2] (setting [6]), 19.3 µM in data set [2] (setting [7]), 10.9 µM in data set [4] (setting [8]) and 10.9 µM in data set [4] (setting [9]). Besides, the “Perm. (1 × 10^−6 cm/sec)” value in data set [3] is reported as 6.2 1 × 10^−6 cm/sec. The “Sol.” value in data set [5] was <1 µg/mL.

As to `CC1=C(C(=O)Nc2ccc(C#N)cc2)C(c2ccccc2Cl)N=C(Nc2nc3ccccc3o2)N1` (centres unmarked) [Compound 189, 2-(benzo[d]oxazol-2-ylamino)-4-(2-chlorophenyl)-N-(4-cyanophenyl)-6-methyl-1,4-dihydropyrimidine-5-carboxamide], the “Metab. Stabil. (m)” value in data set [1] is on record as 25.33 m. The IC50 in data set [2] (setting [6]) turned out to be 13.7 µM; in data set [2] (setting [7]) it was 13.7 µM; in data set [4] (setting [8]) it was 10.9 µM; in data set [4] (setting [9]), 10.9 µM. In addition, the “Perm. (1 × 10^−6 cm/sec)” value in data set [3] is recorded as <18.7 1 × 10^−6 cm/sec. Also, the “Sol.” value in data set [5] is <1 µg/mL.
